Reference: US20260000642A1 (Tay Therapeutics Limited, priority 2022, published 2026)

Experiments:
[1] = Sprague-Dawley rat pharmacokinetics (IV and PO); assay type: in vivo; details: rat, plasma; male Sprague-Dawley rats, PO 5 mg/kg (IV 1 mg/kg), cassette mode, Method 1; read-out: PO F (%)
Procedure, shortened: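 Male Sprague-Dawley rats (2 per arm) dosed in cassette (up to 5 compounds) at 1 mg/kg IV and 5 mg/kg PO, formulated in 5% DMSO/40% PEG-400/55% water. Plasma sampled over time, acetonitrile-precipitated with internal standard, and quantified by LC/MS/MS against matrix-matched standards.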

IL-22 = assay: Human PBMC assay, IL-22 by ELISA (CD2/CD3/CD28 bead stimulation); assay type: cell-based; details: 72 hours
Protocol: CD2, CD3, and CD28 antibody-coated beads from the T-cell activation/expansion kit (Miltenyi Biotec) were added to the PBMC at a bead-to-cell ratio of 1:2. The mixture of PBMCs and beads were seeded into the wells of the round-bottom 96-well plate at a concentration of 2×10^5 cells/well in a total volume of 200 μL. The cells were cultured for 72 hours at 37° C. and 5% CO2 and then supernatants were collected and IL-17A and IL-22 levels were measured by ELISA. […] The final compound concentration ranged from 30,000 nM to 0.005 nM and the final DMSO concentration per well was 0.3%. PBMCs were seeded at approximately […] in the wells of the 96-well tissue culture plate in a total volume of 190 μL. The plate was incubated for 1 hour at 37° C. and 5% CO2. […] The cells were then cultured for 24 hours at 37° C. and 5% CO2. The supernatant was collected and CXCL10 levels were measured by ELISA.

SMILES: CNC(=O)c1[nH]c(C(=O)NC2CCC2)cc1O[C@@H](C)c1ccccc1 [Example 101, N^5-cyclobutyl-N^2-methyl-3-(1-phenylethoxy)-1H-pyrrole-2,5-dicarboxamide]
- bioavailability [1]: 66%
- IC50 for IL-22 relative to GSK620 (IL-22): substantially lower 1050
